Read-outs that look alike come from different tables or passages of the source.
Legend:
[1] = system: B-CLL cells; experiment: formazane reduction assay (MMT test), cytotoxicity after 24 h incubation of the patient's blood; type: cell-based, human
Method: Compounds according to the invention were tested as inductors of a cytotoxic reaction, i.e. triggering of apoptosis, in the case of chronic lymphatic leukemia (B-CLL).
Fludarabine, which is used in B-CLL as a standard chemotherapeutic agent, was employed as a positive control. A cytotoxicity up to a maximum of 60% was achievable under equal test conditions.
The cytotoxicity of the B-CLL cells was determined by means of a commercially available formazane reduction assay (MMT test) after 24 h of incubation of the patient's blood with the active substances.

[2] = system: B-CLL cells; experiment: cytotoxicity / vitality of purified primary B-CLL cells (CellTiter-Glo ATP assay, resazurine vitality test), 72 h; type: cell-based; conditions: Homo sapiens; leukemic B lymphocytes of a B-CLL patient with an 11q deletion (FIG. 1)
Description: In order to check the selective effect of various substances as to the vitality of human cells, isolated B cells from patients suffering from chronic B cell leukemia (B-CLL) and also purified […] (PBMC) and erythrocytes from healthy donors were investigated. The permanent human EHEB B-CLL cell line was selected as a model system for the chronic lymphatic B cell leukemia. It is known in the literature that as compared to primary B-CLL cells the EHEB cells respond in a much more insensitive fashion to proapoptotic signals. The cells were incubated with concentration series of the test substances for 3 days and the vitality of the cells was determined by means of CellTiter-Glo™ ATP assay (Promega, catalog number G7571) according to the manufacturer's instructions after this period.
Primary tumor cells are isolated from whole blood by means of density gradient centrifugation. To this end, the patient's whole blood is incubated with 50.0 μl human B cell enrichment cocktail (RosetteSep; Stem Cell Technology, Cat #15064) per milliliter whole blood at room temperature (RT) for 20 min. […] Having determined the cell number by means of trypan blue staining (trypan blue solution of Sigma-Aldrich, catalog no. T-8154) the desired number of test plates can be prepared. […]

[3] = system: B-CLL cells; experiment: synergistic effect with fludarabine on induction of apoptosis in purified B-CLL cells; type: cell-based, human
Description: As shown, a combination of an exemplary substance according to the invention with fludarabine already yields a total toxicity of the B-CLL cells of over 80% with a 10% toxic concentration of each partner. In the case of an additive effect of both substances, only about 20% toxicity could be expected. If the concentration of both substances is increased such that each substance kills 20% of the cells in a separate test, a toxicity of almost 100% is obtained in this synergy experiment.

[4] = system: caspases 3, 7 and 9; experiment: caspase-Glo 3/7 and caspase-Glo 9 assays in EHEB cells; type: cell-based, human; conditions: 4.5 and 24 hours (FIG. 2)
Method: In order to determine the specific induction of programmed cell death (apoptosis), a detection thereof was carried out by means of caspase-3/7 activity; the caspase-3/7 activity is described in the literature as a safe detection of apoptosis.
The EHEB cells were prepared as described above and incubated with three concentration dilutions, each in triple determination, for 4.5 and 24 hours. Thus, substance final concentrations were selected from 50.0, 10.0 and 2.00 μM for the 4 hour batches as well as 10.0, 1.00 and 0.50 μM for the 24 hour batches. In this connection, staurosporine in a final concentration of 2.00 μM (4 hour batches) and 0.50 μM (24 hour batches) acted as the positive control. In order to detect the caspase-3/7 activity, the caspase-Glo 3/7 and caspase-Glo 9 assays of Promega company were used; in this connection, the enzyme activity was determined by means of a luminescence signal which was recorded with the FluostarOPTIMA measurement device (BMG Labtechnologies).
The results were evaluated by a comparison between the relative luminescence intensity of the test substances and the positive control (staurosporine=100%) by means of the Excel program. The relative intensities for the substances according to the invention are up to 100% with an inhibitor concentration between 1 and 50 μM. […]

SMILES | cytotoxicity (apoptosis) of the leukemia cells, maximum reached [1] | also measured
OCCOc1nc(N2CCNCC2)nc2c1[nH]c1cc(-c3ccncc3)ccc12 [2-{2-(piperazin-1-yl)-7-(pyridin-4-yl)-5H-pyrimido[5,4-b]indol-4-yloxy}ethanol] | up to 100% | 
CCOc1nc(N2CCNCC2)nc2c1[nH]c1ccc(-c3ccncc3)cc12 [4-ethoxy-2-(piperazin-1-yl)-8-(pyridin-4-yl)-5H-pyrimido[5,4-b]indole] | up to 100% | 
CCOc1nc(N2CCNCC2)c2[nH]c3cc(-c4ccncc4)ccc3c2n1 [2-ethoxy-4-(piperazin-1-yl)-7-(pyridin-4-yl)-5H-pyrimido[5,4-b]indole] | up to 100% | 
CCOc1nc(N2CCNCC2)nc2c1[nH]c1cc(N3CCOCC3)ccc12 [4-ethoxy-7-morpholino-2-(piperazin-1-yl)-5H-pyrimido[5,4-b]indole] | up to 100% | 
Nc1nc(F)nc2c1ncn2[C@@H]1O[C@H](CO)[C@@H](O)[C@@H]1O [Fludarabine, fludarabine, reference compound] |  | cytotoxicity (apoptosis) of the leukemia cells, maximum reached ([1]; ex vivo, blood of B-CLL patients, 24 h incubation): ≤ 60%
CCOc1nc(N2CCNCC2)nc2c1[nH]c1cc(-c3ccc(O)cc3)ccc12.Cl [4-(4-ethoxy-2-(piperazin-1-yl)-5H-pyrimido[5,4-b]indol-7-yl)phenol-hydrochloride] | up to 100% | 
CCOc1nc(N2CCNCC2)nc2c1[nH]c1cc(-c3ccc(OC)c(OC)c3)ccc12 [4-ethoxy-2-(piperazin-1-yl)-7-(3,4-dimethoxy-phenyl)-5H-pyrimido[5,4-b]indole] | up to 100% | 
CCOc1nc(N2CCN(C)CC2)nc2c1[nH]c1cc(-c3ccncc3)ccc12 [4-ethoxy-2-(4-methylpiperazin-1-yl)-7-(pyridin-4-yl)-5H-pyrimido[5,4-b]indole] | up to 100% | 
CCOc1nc(N2CCNCC2)nc2c1[nH]c1cc(-c3ccc(C(=O)O)cc3)ccc12.Cl [4-(4-ethoxy-2-(piperazin-1-yl)-5H-pyrimido[5,4-b]indol-7-yl)benzoic acid hydrochloride] | up to 100% | 
CCOc1nc(N2CCNCC2)nc2c1[nH]c1cc(-c3ccc(N)nc3)ccc12 [4-ethoxy-2-(piperazin-1-yl)-7-(2-aminopyridin-5-yl)-5H-pyrimido[5,4-b]indole] | up to 100% | 
CCOC(=O)c1ccc(-c2ccc3c(c2)[nH]c2c(OCC)nc(N4CCNCC4)nc23)cc1 [4-(4-ethoxy-2-(piperazin-1-yl)-5H-pyrimido[5,4-b]indol-7-yl)benzoic acid ethyl ester] | up to 100% | 
CCOc1nc(N2CCNCC2)nc2c1[nH]c1cc(-c3ccncc3)cc(OC)c12 [4-ethoxy-9-methoxy-2-(piperazin-1-yl)-7-(pyridin-4-yl)-5H-pyrimido[5,4-b]indole] | up to 100% | 
CCOc1nc(N2CCNCC2)nc2c1[nH]c1c(-c3ccncc3)cccc12 [Example 8, 4-ethoxy-2-(piperazin-1-yl)-6-(pyridin-4-yl)-5H-pyrimido[5,4,-b]indole] | up to 100% | 
CCOc1nc(N2CCNCC2)nc2c1[nH]c1cc(-c3cccc(C(=O)OC)c3)ccc12 [3-(4-ethoxy-2-(piperazin-1-yl)-5H-pyrimido[5,4-b]indol-7-yl)benzoic acid methyl ester] | up to 100% | 
CCOc1nc(N2CCNCC2)nc2c1[nH]c1cc(-c3cccc(C(=O)O)c3)ccc12.Cl [3-(4-ethoxy-2-(piperazin-1-yl)-5H-pyrimido[5,4-b]indol-7-yl)benzoic acid hydrochloride] | up to 100% | 
CCOc1nc(N2CCNCC2)nc2c1[nH]c1cc(-c3ccncc3)ccc12 [4-ethoxy-2-(piperazin-1-yl)-7-(pyridin-4-yl)-5H-pyrimido[5,4-b]indole] | up to 100% | IC50 [2]: 80 nM; total toxicity of the B-CLL cells ([3]; combination with fludarabine, 10% toxic concentration of each partner): over 80%; toxicity of the B-CLL cells ([3]; combination with fludarabine, each substance kills 20% of the cells in a separate test): ~100%; effect of combination with fludarabine on the induction of apoptosis ([3]; purified B-CLL cells (FIG. 4)): synergistic effect; activation of caspases 3, 7 and 9 [4]: activating caspases 3, 7, and 9
CCOc1nc(N2CCNCC2)nc2c1[nH]c1cc(-c3ccccc3N)cc(OC)c12 [Example 1, 2-(4-ethoxy-9-methoxy-2-(piperazin-1-yl)-5H-pyrimido[5,4-b]indol-7-yl)benzene amine] | up to 100% | 
CCOc1nc(N2CCNCC2)nc2c1[nH]c1cc(-c3cccnc3)ccc12 [4-ethoxy-2-(piperazin-1-yl)-7-(pyridin-3-yl)-5H-pyrimido[5,4-b]indole] | up to 100% | 
